# Results: EP4725508A1, “LIGAND-DRUG CONJUGATE HAVING FREE PAYLOAD RECOVERY UNIT” (RemeGen Co., Ltd., priority 2024, dated 2025)
# pIC50, pKd: −log10 of the molar value. Read-outs that look alike come from different tables or passages of the source. Square brackets hold non-standard residues; d marks the D form. Peptide text beside a SMILES is read from it. * marks the point of attachment. Dolaproine = CO[C@@H]([C@@H]1CCCN1)[C@@H](C)C(=O)O; Dil = CC[C@H](C)[C@H](NC)[C@@H](CC(=O)O)OC; X1 = C[C@@H](N*)[C@@H](O)c1ccccc1; NMeV = CN[C@H](C(=O)O)C(C)C
# Assays:
# CHOK1 [1] = assay: Cell killing activity; format: cell-based
# [2] = system: chimeric antibody No. 92 (VH SEQ ID NO: 28, VL SEQ ID NO: 32); assay: Blocking experiment (ELISA, OVA-MMAF coated); format: binding, mouse; conditions: MMAE+antibody; OVA-MMAF coated 200 ng/mL; antibody 100 ng/mL
# Experimental: (§1) Blocking Experiment: OVA-MMAF was coated onto ELISA plates at a concentration of 200 ng/mL and incubated at 37°C for 1 h. The plates were blocked with 5% skim milk and incubated at 37°C for 2 h. The antibody was diluted to a final concentration of 100 ng/mL. MMAE and MMAE-Linker were diluted at concentrations of 600, 200, 66.67, 22.22, 7.41, 2.47, 0.82, 0.27, 0.09, 0.03, and 0.01 nM. 50 µL MMAE + 50 µL chimeric antibody and 50 µL MMAE-Linker + 50 µL chimeric antibody were added respectively to the ELISA plates. The total volume per well was 100 µL. The plates were incubated at 37°C for 1 h. Goat Anti-Human IgG H&L (HRP) (abcam, ab6858) diluted at 1:5000 was added, incubated at 37°C for 1 h, and then subjected to TMB color development. The OD value was determined at 450 nm.
# (§2) Blocking Experiment: The experimental steps were the same as the above blocking experiment.
# [3] = system: chimeric antibody No. 93 (VH SEQ ID NO: 35, VL SEQ ID NO: 38); assay: Blocking experiment (ELISA, OVA-MMAF coated); format: binding, mouse; conditions: MMAE+antibody; OVA-MMAF coated 200 ng/mL; antibody 100 ng/mL
# Experimental: as §1, §2
# [4] = system: chimeric antibody No. J4 (VH SEQ ID NO: 21, VL SEQ ID NO: 25); assay: Blocking experiment (ELISA, OVA-MMAF coated); format: binding, mouse; conditions: MMAE+antibody; OVA-MMAF coated 200 ng/mL; antibody 100 ng/mL
# Experimental: as §1, §2
# [5] = system: chimeric antibody No. 132 (VH SEQ ID NO: 39, VL SEQ ID NO: 43); assay: Blocking experiment (ELISA, OVA-MMAF coated); format: binding, mouse; conditions: MMAE+antibody; OVA-MMAF coated 200 ng/mL; antibody 100 ng/mL
# Experimental: as §1, §2
# [6] = system: chimeric antibody No. 133 (VH SEQ ID NO: 46, VL SEQ ID NO: 49); assay: Blocking experiment (ELISA, OVA-MMAF coated); format: binding, mouse; conditions: MMAE+antibody; OVA-MMAF coated 200 ng/mL; antibody 100 ng/mL
# Experimental: as §1, §2
# HCC1954 [7] = assay: Cell killing activity; format: cell-based
# chimeric antibody No. 93 = assay: Biacore determination, binding affinity with free MMAE; set-up: species or system mouse; conditions: antibody immobilized with ProA probe; free MMAE 50-1.85 nM
# Experimental: (§3) Antibody immobilization: 20 µg/mL of antibody was immobilized onto the chip surface using a ProA probe; Binding: Antigen MMAE concentrations were 50, 16.7, 5.5, 1.85, and 0 nM. The flow rate was set at 30 µL/min, and the contact time was 600 s; Dissociation: The chip was washed with HEPES buffer for 300 s. Regeneration: Regeneration was performed with 10 mM Glycine-HCl.
# chimeric antibody No. 69 = assay: as above; set-up: species or system mouse; conditions: antibody immobilized with ProA probe; free MMAE 50-1.85 nM
# Experimental: as §3
# chimeric antibody No. 74 = assay: as above; set-up: species or system mouse; conditions: antibody immobilized with ProA probe; free MMAE 50-1.85 nM
# Experimental: as §3
# chimeric antibody No. 44 = assay: as above; set-up: species or system mouse; conditions: antibody immobilized with ProA probe; free MMAE 50-1.85 nM
# Experimental: as §3
# chimeric antibody No. 89 = assay: as above; set-up: species or system mouse; conditions: antibody immobilized with ProA probe; free MMAE 50-1.85 nM
# Experimental: as §3
# chimeric antibody No. 1 = assay: as above; set-up: species or system mouse; conditions: antibody immobilized with ProA probe; free MMAE 50-1.85 nM
# Experimental: as §3
# [8] = molecular target: chimeric antibody No. 62 (VH SEQ ID NO: 1, VL SEQ ID NO: 5); assay: as above; set-up: species or system mouse; conditions: antibody immobilized with ProA probe; free MMAE 50-1.85 nM
# Experimental: as §3
# chimeric antibody No. 92 = assay: as above; set-up: species or system mouse; conditions: antibody immobilized with ProA probe; free MMAE 50-1.85 nM
# Experimental: as §3
# [9] = system: humanized antibody ABC3320 (Heavy chain: SEQ ID NO: 163; Light chain: SEQ ID NO: 164); assay: Blocking experiment (ELISA, OVA-MMAF coated); format: binding; conditions: MMAE+ antibody; OVA-MMAF coated 200 ng/mL; antibody 100 ng/mL; control in Tables 6, 8, 10, 12
# Experimental: as §1, §2
# [10] = molecular target: humanized antibody ABC3320 (Heavy chain: SEQ ID NO: 163; Light chain: SEQ ID NO: 164); assay: Biacore determination, binding affinity with free MMAE; conditions: antibody immobilized with ProA probe; free MMAE 50-1.85 nM
# Experimental: as §3
# OVCAR3 [11] = assay: Cell killing activity; format: cell-based
# [12] = system: chimeric antibody No. 64 (VH SEQ ID NO: 8, VL SEQ ID NO: 12); assay: Blocking experiment (ELISA, OVA-MMAF coated); format: binding, mouse; conditions: MMAE+antibody; OVA-MMAF coated 200 ng/mL; antibody 100 ng/mL
# Experimental: as §1
# [13] = system: chimeric antibody No. 62 (VH SEQ ID NO: 1, VL SEQ ID NO: 5); assay: Blocking experiment (ELISA, OVA-MMAF coated); format: binding, mouse; conditions: MMAE+antibody; OVA-MMAF coated 200 ng/mL; antibody 100 ng/mL
# Experimental: as §1
# OVCAR3 [14] = assay: Cell killing activity; format: cell-based; remark: listed apart in the source
# Nectin-4 = molecular target: T1, Nectin-4 (Homo sapiens, UniProt Q96NY8); assay: Binding activity with Nectin-4
# T1 sequence (Q96NY8 32-510): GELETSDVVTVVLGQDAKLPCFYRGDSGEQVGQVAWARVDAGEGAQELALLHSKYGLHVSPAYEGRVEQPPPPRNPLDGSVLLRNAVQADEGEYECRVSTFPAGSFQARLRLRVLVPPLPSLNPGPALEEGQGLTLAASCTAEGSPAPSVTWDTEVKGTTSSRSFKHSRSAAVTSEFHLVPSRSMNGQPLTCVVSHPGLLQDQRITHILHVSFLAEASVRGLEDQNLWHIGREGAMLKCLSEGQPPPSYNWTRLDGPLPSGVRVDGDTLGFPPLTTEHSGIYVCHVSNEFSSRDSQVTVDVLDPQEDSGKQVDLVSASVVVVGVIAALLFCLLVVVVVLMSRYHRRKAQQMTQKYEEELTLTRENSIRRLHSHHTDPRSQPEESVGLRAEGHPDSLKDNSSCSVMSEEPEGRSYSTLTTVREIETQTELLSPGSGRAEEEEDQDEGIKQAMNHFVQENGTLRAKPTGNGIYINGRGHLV
# [15] = Comparative study of toxicity in BALB/c mice; format: in vivo
# Experimental: (§4) Test 1: 18 BALB/c mice, female, with body weights of 16 to 19 g at the time of grouping, were divided into a PR-ADC group (CDCP1A9-DL01-MMAE, 140 mg/kg) and a conventional ADC group (CDCP1A6-DL01-MMAE, 100 mg/kg), both at equimolar doses, with 9 mice in each group (5 for toxicology + 4 for toxicokinetic (TK)), for a total of 2 groups. A single dose was administered, with a dosing volume of 10 mL/kg. The drug-related toxic effects in BALB/c mice for each group were investigated and compared through aspects such as death, clinical observation, body weight, and toxicokinetic detection. The experiment lasted for 14 days.
# (§5) Test 2: 16 BALB/c mice, female, with body weights of 16 to 20 g at the time of grouping, were divided into PR-ADC group (CDCP1A12-DL01-MMAE, 134 mg/kg) and conventional ADC group (CDCP1A6-DL01-MMAE, 100 mg/kg) dose group, both at equimolar doses, with 8 mice in each group (4 for toxicology + 4 for TK), for a total of 2 groups. A single dose was administered, with a dosing volume of 10 mL/kg. The drug-related toxic effects in BALB/c mice for each group were investigated and compared through aspects such as death, clinical observation, body weight, and toxicokinetic detection. The experiment lasted for 14 days.
# (§6) 18 BALB/c mice, female, with body weights of 16 to 19 g at the time of grouping, were divided into a PR-ADC group (Nectin4A14-DL01-MMAE, 136 mg/kg) and a conventional ADC group (EV, 100 mg/kg), both at equimolar doses, with 9 mice in each group (5 for toxicology + 4 for TK), for a total of 2 groups.
# [16] = system: human bladder cancer cell HT-1376 subcutaneous xenograft; assay: Efficacy in subcutaneous xenograft model; format: in vivo, BALB/c-nu mice; conditions: equimolar doses
# Experimental: Human bladder cancer cells HT-1376 were expanded and cultured, and then subcutaneously inoculated into the right forelimb axilla near the back of BALB/c-nu mice (GemPharmatech, female). Tumor growth was observed. When the tumor volume reached about 90 to 200 mm^3, the mice were randomized into groups based on tumor volume and administered with drugs.
# The day of administration was designated as D0. During the experiment, tumor long diameter, short diameter, and body weight were measured twice a week, accompanied by observation of clinical symptoms. At the endpoint of the experiment, the experimental mice were euthanized.
# CHOK1 [17] = assay: Cell killing activity; format: cell-based; remark: listed apart in the source
# [18] = Toxicokinetics of free MMAE in serum (Hybrid LBA LC-MS/MS); format: in vivo; conditions: BALB/c mice, Nectin4A14-DL01-MMAE 136 mg/kg vs EV 100 mg/kg
# Experimental: as §4
# Free MMAE was determined using a Hybrid LBA LC-MS/MS method. Protein A/G-Beads were used to separate the ADC/PR-ADC, MMAE-bound PR-ADC, and MMAE-bound anti-MMAE antibodies from the serum. The remaining samples were subjected to protein precipitation and then tested for free MMAE using the LC-MS/MS method. Table 34. Toxicity test results of animals in each group
# as §5
# Free MMAE was also determined using the Hybrid LBALC-MS/MS method. Table 36. Toxicity test results of animals in each group
# as §6
# Free MMAE was also determined using the Hybrid LBA LC-MS/MS method. Table 38. […]
# HCC1954 [19] = assay: Cell killing activity; format: cell-based; remark: listed apart in the source
molecule,measurement,setting,value
"CC[C@H](C)[C@@H]([C@@H](CC(=O)N1CCC[C@H]1[C@H](OC)[C@@H](C)C(=O)N[C@H](C)[C@@H](O)c1ccccc1)OC)N(C)C(=O)[C@@H](NC(=O)[C@@H](NC)C(C)C)C(C)C [MMAE, monomethyl auristatin E] (H-[NMeV]V[Dil][Dolaproine]-X1)",MIR (%),CHOK1 [1],83.94%
same,pIC50,"CHOK1 [1]; Cricetulus griseus, CHO-K1",7.46
same,pIC50,[2],7.08
same,pIC50,[3],7.26
same,pIC50,[4],8.72
same,pIC50,[5],8.88
same,pIC50,[6],8.80
same,MIR (%),HCC1954 [7],60.95%
same,pIC50,HCC1954 [7]; Homo sapiens,9.51
same,pKd,chimeric antibody No. 93,8.55
same,ka,chimeric antibody No. 93,85700 M⁻¹ s⁻¹
same,kd,chimeric antibody No. 93,0.000241 s⁻¹
same,pKd,chimeric antibody No. 69,8.67
same,ka,chimeric antibody No. 69,70200 M⁻¹ s⁻¹
same,kd,chimeric antibody No. 69,0.00015 s⁻¹
same,pKd,chimeric antibody No. 74,8.67
same,ka,chimeric antibody No. 74,84400 M⁻¹ s⁻¹
same,kd,chimeric antibody No. 74,0.00018 s⁻¹
same,pKd,chimeric antibody No. 44,8.75
same,ka,chimeric antibody No. 44,326000 M⁻¹ s⁻¹
same,kd,chimeric antibody No. 44,0.00058 s⁻¹
same,pKd,chimeric antibody No. 89,8.68
same,ka,chimeric antibody No. 89,61600 M⁻¹ s⁻¹
same,kd,chimeric antibody No. 89,0.00013 s⁻¹
same,pKd,chimeric antibody No. 1,8.75
same,ka,chimeric antibody No. 1,53500 M⁻¹ s⁻¹
same,kd,chimeric antibody No. 1,9.52e-05 s⁻¹
same,pKd,[8],9.13
same,ka,[8],105000 M⁻¹ s⁻¹
same,kd,[8],7.78e-05 s⁻¹
same,pKd,chimeric antibody No. 92,8.58
same,ka,chimeric antibody No. 92,67300 M⁻¹ s⁻¹
same,kd,chimeric antibody No. 92,0.000179 s⁻¹
same,pIC50,[9],8.86
same,pKd,[10],9.50
same,ka,[10],100000 M⁻¹ s⁻¹
same,kd,[10],3.18e-05 s⁻¹
same,MIR (%),OVCAR3 [11],3.69%
same,pIC50,"OVCAR3 [11]; Homo sapiens, OVCAR-3",9.51
same,pIC50,[12],8.32
same,pIC50,[13],8.85
Enfortumab vedotin [EV],pIC50,OVCAR3 [14],7.48
same,MIR (%),OVCAR3 [14],60.27%
same,Top OD450,Nectin-4,1.23
same,Clinical Observation,[15]; Nectin4A14-DL01-MMAE 136 mg/kg vs EV 100 mg/kg,"Piloerection (4/4), Hunched posture (5/5), Squinting eyes (5/5), Lethargy (1/5)"
same,Death,[15]; Nectin4A14-DL01-MMAE 136 mg/kg vs EV 100 mg/kg (equimolar),2/9
same,Max Body Weight Change Rate,"[15]; Nectin4A14-DL01-MMAE 136 mg/kg vs EV 100 mg/kg, day in brackets in the cell",-24.4% (D7)
same,tolerance,[15]; Nectin-4 comparison,less than 100 mg/kg
same,TGI,[16],71%
same,MIR (%),CHOK1 [17],17.40%
same,Free MMAE AUC,[18],9.09097 ± 0.65517 µM·h
same,Free MMAE Cmax,[18],76.08 ± 4.88 nM
same,Free MMAE Tmax,[18],24 h
same,pIC50,HCC1954 [19],6.83
same,MIR (%),HCC1954 [19],70.90%
